Where two headings read alike, the source gives them in different places.
Experiments:
[1] = Pharmacokinetics after administration of rac-ornidazole in a formulation; type: in vivo, human; conditions: for AUC of the component compared with rac-ornidazole / T1/2 of the component compared with rac-ornidazole: after a single administration of rac-ornidazole
prothrombin time = assay: Effect on prothrombin time; conditions: relative to the Ornidazole racemic mixture

| half-life ([1]; human, in vivo, after a single administration of rac-ornidazole in a formulation, read-out: elimination half-life (T1/2)) [h] | Tmax ([1]; human, in vivo, after administration of rac-Ornidazole in a formulation) [h] | half-life ([1]; human, in vivo, after oral administration, read-out: terminal elimination half-life) [h] | Cmax ([1]; human, in vivo, after single administration of rac-ornidazole in a formulation) [ng/mL] | SMILES | AUC of the component compared with rac-ornidazole [1] | T1/2 of the component compared with rac-ornidazole [1] | effect on prothrombin time (prothrombin time) |
| --- | --- | --- | --- | --- | --- | --- | --- |
|  |  |  |  | Cc1ncc([N+](=O)[O-])n1C[C@@H](O)CCl [(R)-ornidazole] | similar | similar | diminished effect on prothrombin time |
| 14 to 18 | 2 to 4 | 14 to 18 | 9000 to 31500 | Cc1ncc([N+](=O)[O-])n1CC(O)CCl (racemic) [(rac)-ornidazole, 1-chloro-3-(2-methyl-5-nitro-1H-imidazol-1-yl)propan-2-ol, reference compound] |  |  |  |
|  |  |  |  | Cc1ncc([N+](=O)[O-])n1C[C@H](O)CCl [(S)-ornidazole] | similar | similar | diminished effect on prothrombin time |

— patent publication US11135200B2, “Antimicrobial drug synthesis and therapeutic compositions” (priority 2014, dated 2021)
